Measurements published in publication PMC12769565, “Design, synthesis and biological activity of glycoconjugated ADAMTS5 exosite inhibitors: applications in osteoarthritis and ovarian cancer models” (Scientific Reports, 2025).

Experiments:
[1] = system: human non-OA chondrocytes; assay: Cell viability MTS assay; type: cell-based; conditions: 72 h, vs DMSO control
Protocol: Non-OA human chondrocytes were isolated from knee cartilage tissues obtained from the Stanmore BioBank, Institute of Orthopaedics, Royal National Orthopaedic Hospital, Stanmore, UK, from 3 donors following informed consent and approval by the Royal Veterinary College Ethics and Welfare Committee (Institutional approval URN 2012 0048 H) as before.
(§1) Cell viability was assessed using CellTiter® 96 Aqueous One Solution Cell Proliferation Assay (Promega, G3582) following the manufacturer’s protocol. The assay is based on the reduction of [3-(4,5-dimethylthiazol-2-yl)-5-(3-carboxymethoxyphenyl)-2-(4-sulfophenyl)-2 H-tetrazolium] (MTS) and phenazine ethosulfate into formazan. Compounds 2 and 4b, GM6001 (Merck, 364206) (10–100 µM), or DMSO control were incubated in 48-well Nunc™ plates (Thermo Fisher Scientific,150687) with HEK293T cells, human non-OA chondrocytes, porcine cartilage explants, or human OA cartilage explants for 72 h. At least 3 independent experiments were carried out with 3 technical replicates each. For experiments involving human samples, independent experiments were carried out on 3 different donors. Absorbance at 490 nm was measured on a SpectraMax i3x Multi-Mode Platform (Molecular Devices). Cell viability was normalized to DMSO controls.

[2] = system: porcine cartilage explants; assay: Cell viability MTS assay; type: cell-based, pig; conditions: 100 µM; 72 h; vs DMSO control
Protocol: Porcine articular cartilage from the joints of 3–9 month old pigs was supplied by a local abattoir within 2 h of slaughter and dissected into small pieces approximately 3 mm long and 3–4 mm wide. Each piece weighed roughly 10 mg. After dissection, the cartilage was allowed to acclimatize for 24 h at 37 °C under 5% CO2 in Dulbecco’s Modified Eagle Medium (DMEM) containing 100 U/ml penicillin, 100 µg/ml streptomycin, 10% fetal bovine serum (FBS).
as §1

HEK293T cells = assay: Cell viability MTS assay; type: cell-based, human; conditions: 100 µM; 72 h; vs DMSO control
Protocol: as §1

[3] = system: A2780 OC cells over-expressing Rab25; assay: OC cell migration on cell-derived matrix (pseudopod length, directionality, velocity); type: cell-based; conditions: cells on CDM
Protocol: A2780 OC cells over-expressing Rab25 (A2780-Rab25), generated in G. Mills lab[71], and telomerase-immortalised human fibroblasts (TIFs) were a gift from Jim Norman lab (CRUK Scotland Institute). A2780-Rab25 cells were grown in RPMI media (Gibco), supplemented with 10% (v/v) FBS. TIFs were grown in DMEM, supplemented with 10% FBS. To maintain Rab25 over-expression, A2780-Rab25 cells were selected with 0.4 mg/ml G418 every 10 passages.
CDMs were generated as previously described[72] in 12 well plates. Wells were coated with 0.2% gelatin for 60 min at 37 °C, crosslinked with 1% glutaraldehyde for 30 min at room temperature, quenched with 1 M glycine for 20 min at room temperature and equilibrated in DMEM for 30 min at 37 °C. TIFs (2.5 × 10^5 per well) were seeded for 24 h to achieve confluency and grown in the presence of 50 µg/ml ascorbic acid for 9 days. CDMs were washed with PBS, incubated with extraction buffer (20 mM NH4OH, 0.5% Triton X-100 in PBS with Ca^2+ and Mg^2+) for ~ 2 min, until no intact cells were visible by phase, washed twice with PBS with Ca^2+ and Mg^2+ and treated with 15 µg/ml DNase for 1 h at 37 °C, 5% CO2. CDMs were washed twice with PBS with Ca^2+ and Mg^2+ and stored in PBS with Ca^2+ and Mg^2+ at 4 °C for up to one month.
A2780-Rab25 cells (5 × 10^4 per well) were seeded onto a CDM-coated 12-well plate. Compound 2 was added 4 h after plating. Plates were imaged in a Nikon Inverted Ti eclipse microscope with Oko-lab environmental control chamber with a 10x/NA 0.45 objective. Cells were incubated at 37 °C and 5% CO2, images were acquired every 10 min for 12 h and more than 40 cells per well were quantified per biological replicate. Individual cell migration was manually tracked using MTrack2, a Fiji/ImageJ plugin. The chemotaxis tool plugin in Fiji/Image J (https://ibidi.com/chemotaxis-analysis/171-chemotaxis-and-migration-tool.html) was used to calculate the velocity and directionality of migrating cells.

[4] = system: human OA cartilage explants; assay: Aggrecan fragments released from human OA cartilage (anti-AGEG immunoblot); type: cell-based; conditions: 48 h, anti-AGEG neoepitope, read-out: inhibition of aggrecan degradation
Protocol: Samples were separated by SDS-PAGE under reducing conditions (5% β-mercaptoethanol) on BOLT, 4–12%, Bis-Tris Gels (Invitrogen) in MES Running Buffer (NuPAGE). Proteins were transferred onto a nitrocellulose membrane using Trans-Blot Turbo™ Transfer System (BioRad), at 25 V, 2.5 A for 30 min. Membranes were blocked with 3% BSA/PBS for 1 h at room temperature. Aggrecan fragments generated by ADAMTS cleavage at E^392-A^393[8] or E^1953-A^1954[68] were detected using mouse monoclonal anti-ARGSV antibody (BC3, Life Technologies, MA3-16888, 4 µg/ml) or polyclonal anti-AGEG neoepitope antibody (serum, 1:200 dilution)[12],[33], respectively, followed by the appropriate horseradish peroxidase (HRP)-conjugated secondary antibodies (polyclonal Goat Anti-Mouse P0447, 0.1 ng/µl and polyclonal Goat Anti-Rabbit, P0448, 0.03 ng/µl, both from Agilent Technologies LDA UK Ltd). All antibodies were diluted in 0.5% bovine serum albumin (BSA)/PBS. Washes between each step were carried out in triplicate, for 15 min each, with PBS-Tween (0.1%). Following addition of the chemiluminescent HRP substrate (Millipore, WBKL30500) membranes were imaged using Bio-Rad Chemidoc Touch Imaging System. Analysis was carried out using BioRad ImageLab software (version 5.2.1) using sequential exposures to avoid saturation artifacts. Figures for unprocessed blots are included in Supplementary information Fig. S4 and Fig. S5 with highlighted regions (in red boxes) corresponding to the data reported in the main manuscript figures.
Human OA cartilage was obtained from Clatterbridge Hospital, Wirral, UK, following total knee arthroplasty procedures with informed patient consent in full compliance with national and institutional ethical requirements, the United Kingdom Human Tissue Act, and the Declaration of Helsinki (REC 18/WA/0344). […]
Explants were incubated in 0.2 ml of fresh DMEM containing compound 2 (10 or 100 µM) or 4b (10 µM) for 48 h. […] Proteins were precipitated using ice-cold acetone, dissolved in the SDS-sampling buffer and then analyzed by immunoblot using anti-AGEG aggrecan neoepitope antibody as before.

[5] = tested at 10 or 50 µM, concentration of this value not stated

## CCC(C)N(Cc1cn(CCCO[C@@H]2O[C@H](CO)[C@@H](O[C@@H]3O[C@H](CO)[C@H](O)[C@H](O)[C@H]3O)[C@H](O)[C@H]2NC(C)=O)nn1)S(=O)(=O)c1ccc(-c2ccccc2)cc1 (stereo partly drawn) [compound 2, N-((2R,3R,4R,5 S,6R)-2-(3-(4-((N-(sec-butyl)-[1,1’-biphenyl]-4-sulfonamido)methyl)-1H-1,2,3-triazol-1-yl)propoxy)-4-hydroxy-6-(hydroxymethyl)-5-(((2 S,3R,4 S,5R,6R)-3,4,5-trihydroxy-6-(hydroxymethyl)tetrahydro-2 H-pyran-2-yl)oxy)tetrahydro-2 H-pyran-3-yl)acetamide]
[1]; 50 µM
  inhibition of cell viability: No significant effect
[1]; 100 µM
  inhibition of cell viability: No significant effect
[2]
  decrease of cell viability: did not exhibit cytotoxicity
HEK293T cells
  inhibition of cell viability: Neither 2, nor the broad-spectrum zinc-chelating metalloproteinase inhibitor GM6001[40] had an effect on cell viability
[3]; 10 or 50 µM
  velocity of cell migration: without affecting
[3]; [5]
  inhibition in directionality of cell migration: 43%
  inhibition in pseudopod elongation: 35%
[4]; 10 µM
  inhibition at 10 µM: 63%
[4]; 100 µM
  inhibition at 100 µM: 85%
